For data set [1], the system named is Human immunodeficiency virus 1. The data set can be described thus: Antiviral activity against HIV1 3B in MT2 cells. The class given is functional, organism-based. The following applies: Human immunodeficiency virus 1, 3B.
A short description of data set [2]: Cytotoxicity against human MT2 cells. The class given is cell-based.

The source of these data is ChEMBL document CHEMBL1140817, “Synthesis and anti-HIV activity of 2'-fluorine modified nucleoside phosphonates: analogs of GS-9148” (Bioorg Med Chem Lett, 2008).

The structures appear in SMILES notation. Where only a bound is given, the exact number is not on record here.

As to `Nc1ncnc2c1ncn2[C@@H]1O[C@H](OCP(=O)(O)O)C=C1F` [GS-9148], the EC50 (in general, the midpoint of the concentration-response curve) in data set [1] was determined as 12.3 µM. Also, in data set [2], the CC50 – broadly, the concentration that lowers cell viability or growth by half – was > 1000 µM.

Molecule `Nc1nc2c(ncn2[C@@H]2O[C@H](OCP(=O)(O)O)C=C2F)c(=O)[nH]1` came in with an EC50 in data set [1] of 17.4 µM. In data set [2], this molecule showed a CC50 of 700 µM.

In data set [1], `C[C@H](Cn1cnc2c(N)ncnc21)OCP(=O)(O)O` [TENOFOVIR ANHYDROUS] returned an EC50 of 3.6 µM. Moreover, in data set [2], the cytotoxic concentration (CC50) is > 1000 µM.

As to `Nc1ncnc2c1ncn2[C@@H]1O[C@H](OCP(=O)(O)O)C[C@@H]1F`, the midpoint of the response in data set [1], the EC50, lay at 283 µM. Moreover, the CC50 in data set [2] is > 1000 µM.

`O=c1[nH]cnc2c1ncn2[C@@H]1O[C@H](OCP(=O)(O)O)C=C1F`: the EC50 in data set [1] is > 300 µM.

In the case of `Nc1nc(N)c2ncn([C@@H]3O[C@H](OCP(=O)(O)O)C=C3F)c2n1`, the EC50 in data set [1] is > 300 µM.
